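In this assay, cells in 96-well plates receive the compound at five concentrations for 48 hours. Endpoints are linearly interpolated between the surrounding concentrations. GI50 marks 50% less growth.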 Active and inactive are the calls of the source. No stated cut-off is given here; in the data, active = GI50 up to about 1.1 µM and inactive = higher.
Assays:
Assay in all cases: NCI tumour cell line growth inhibition, 48 h
NCI-H522 = test system: NCI-H522
DU-145 = test system: DU-145
SNB-75 = test system: SNB-75
NCI-H23 = test system: NCI-H23
LOX IMVI = test system: LOX IMVI
UACC-62 = test system: UACC-62
SW-620 = test system: SW-620
UO-31 = test system: UO-31
BT-549 = test system: BT-549
MDA-N = test system: MDA-N
SK-MEL-2 = test system: SK-MEL-2
CAKI-1 = test system: CAKI-1
KM12 = test system: KM12
SNB-19 = test system: SNB-19
HT-29 = test system: HT-29
NCI/ADR-RES = test system: NCI/ADR-RES
TK-10 = test system: TK-10
Malme-3M = test system: Malme-3M
OVCAR-3 = test system: OVCAR-3
OVCAR-5 = test system: OVCAR-5
HCT-15 = test system: HCT-15
MDA-MB-435 = test system: MDA-MB-435
786-0 = test system: 786-0
A549 = test system: A549
NCI-H226 = test system: NCI-H226
OVCAR-4 = test system: OVCAR-4
MDA-MB-231 = test system: MDA-MB-231
UACC-257 = test system: UACC-257
K562 = test system: K562
MOLT-4 = test system: MOLT-4
HCC 2998 = test system: HCC 2998
SK-OV-3 = test system: SK-OV-3
Hs-578T = test system: Hs-578T
T47D = test system: T47D
PC-3 = test system: PC-3
SN12C = test system: SN12C
SF-295 = test system: SF-295
HOP-62 = test system: HOP-62
RPMI-8226 = test system: RPMI-8226
IGROV-1 = test system: IGROV-1
A498 = test system: A498
SK-MEL-5 = test system: SK-MEL-5
EKVX = test system: EKVX
COLO 205 = test system: COLO 205
U-251 = test system: U-251
OVCAR-8 = test system: OVCAR-8
M14 = test system: M14
ACHN = test system: ACHN
SF-268 = test system: SF-268
MCF7 = test system: MCF7
HL-60 = test system: HL-60
HCT-116 = test system: HCT-116
SF-539 = test system: SF-539
RXF 393 = test system: RXF 393
CCRF-CEM = test system: CCRF-CEM
HOP-92 = test system: HOP-92
SK-MEL-28 = test system: SK-MEL-28
NCI-H460 = test system: NCI-H460

CC(=O)OCC1OC(OC2CC3C(C)(C)C(OC(C)=O)CC[C@]3(C)C3CCC45CC4(CCC5[C@@H](C)C[C@H](O)C(O)C(C)(C)O)[C@]23C)C(O)C(O)C1O (stereo partly drawn)
GI50 (NCI-H522): > 10 µM (inactive) | GI50 (DU-145): > 10 µM (inactive) | GI50 (SNB-75): > 10 µM (inactive) | GI50 (NCI-H23): > 10 µM (inactive) | GI50 (LOX IMVI): > 10 µM (inactive) | GI50 (UACC-62): > 10 µM (inactive) | GI50 (SW-620): > 10 µM (inactive) | GI50 (UO-31): > 10 µM (inactive) | GI50 (BT-549): > 10 µM (inactive) | GI50 (MDA-N): > 10 µM (inactive) | GI50 (SK-MEL-2): 5.65 µM (inactive) | GI50 (CAKI-1): > 10 µM (inactive) | GI50 (KM12): > 10 µM (inactive) | GI50 (SNB-19): > 10 µM (inactive) | GI50 (HT-29): > 10 µM (inactive) | GI50 (NCI/ADR-RES): > 10 µM (inactive) | GI50 (TK-10): > 10 µM (inactive) | GI50 (Malme-3M): > 10 µM (inactive) | GI50 (OVCAR-3): > 10 µM (inactive) | GI50 (OVCAR-5): > 10 µM (inactive) | GI50 (HCT-15): > 10 µM | GI50 (MDA-MB-435): > 10 µM (inactive) | GI50 (786-0): > 10 µM (inactive) | GI50 (A549): > 10 µM (inactive) | GI50 (NCI-H226): > 10 µM (inactive) | GI50 (OVCAR-4): > 10 µM (inactive) | GI50 (MDA-MB-231): > 10 µM (inactive) | GI50 (UACC-257): > 10 µM (inactive) | GI50 (K562): 9.12 µM (inactive) | GI50 (MOLT-4): > 10 µM (inactive) | GI50 (HCC 2998): > 10 µM (inactive) | GI50 (SK-OV-3): > 10 µM (inactive) | GI50 (Hs-578T): > 10 µM (inactive) | GI50 (T47D): > 10 µM (inactive) | GI50 (PC-3): > 10 µM (inactive) | GI50 (SN12C): > 10 µM (inactive) | GI50 (SF-295): > 10 µM (inactive) | GI50 (HOP-62): > 10 µM (inactive) | GI50 (RPMI-8226): 5.18 µM (inactive) | GI50 (IGROV-1): > 10 µM (inactive) | GI50 (A498): > 10 µM (inactive) | GI50 (SK-MEL-5): > 10 µM (inactive) | GI50 (EKVX): > 10 µM (inactive) | GI50 (COLO 205): > 10 µM (inactive) | GI50 (U-251): > 10 µM (inactive) | GI50 (OVCAR-8): > 10 µM (inactive) | GI50 (M14): > 10 µM (inactive) | GI50 (ACHN): > 10 µM (inactive) | GI50 (SF-268): > 10 µM (inactive) | GI50 (MCF7): 6.61 µM (inactive) | GI50 (HL-60): 9.44 µM (inactive) | GI50 (HCT-116): > 10 µM (inactive) | GI50 (SF-539): > 10 µM (inactive) | GI50 (RXF 393): > 10 µM (inactive) | GI50 (CCRF-CEM): > 10 µM (inactive) | GI50 (HOP-92): 9.44 µM (inactive) | GI50 (SK-MEL-28): > 10 µM (inactive) | GI50 (NCI-H460): > 10 µM (inactive)

O=C(/C=C/c1ccccc1)CCc1c(O)c2ccccc2oc1=O
GI50 (NCI-H522): 74.3 µM (inactive) | GI50 (DU-145): > 100 µM (inactive) | GI50 (SNB-75): > 100 µM (inactive) | GI50 (NCI-H23): 65.5 µM (inactive) | GI50 (LOX IMVI): 52.5 µM (inactive) | GI50 (UACC-62): 71 µM (inactive) | GI50 (SW-620): 53.8 µM (inactive) | GI50 (UO-31): 63.2 µM (inactive) | GI50 (BT-549): 32.4 µM (inactive) | GI50 (MDA-N): 71.9 µM (inactive) | GI50 (SK-MEL-2): 71.9 µM (inactive) | GI50 (CAKI-1): > 100 µM (inactive) | GI50 (KM12): 40.8 µM (inactive) | GI50 (SNB-19): > 100 µM (inactive) | GI50 (HT-29): > 100 µM (inactive) | GI50 (NCI/ADR-RES): > 100 µM (inactive) | GI50 (Malme-3M): > 100 µM (inactive) | GI50 (OVCAR-3): 49.4 µM (inactive) | GI50 (OVCAR-5): > 100 µM (inactive) | GI50 (HCT-15): 76.7 µM | GI50 (MDA-MB-435): 67.9 µM (inactive) | GI50 (786-0): > 100 µM (inactive) | GI50 (A549): 83.8 µM (inactive) | GI50 (NCI-H226): > 100 µM (inactive) | GI50 (OVCAR-4): 76.9 µM (inactive) | GI50 (MDA-MB-231): 44 µM (inactive) | GI50 (UACC-257): > 100 µM (inactive) | GI50 (K562): 49.4 µM (inactive) | GI50 (MOLT-4): 27.7 µM (inactive) | GI50 (HCC 2998): > 100 µM (inactive) | GI50 (SK-OV-3): > 100 µM (inactive) | GI50 (Hs-578T): > 100 µM (inactive) | GI50 (T47D): > 100 µM (inactive) | GI50 (PC-3): 43.9 µM (inactive) | GI50 (SN12C): > 100 µM (inactive) | GI50 (SF-295): > 100 µM (inactive) | GI50 (RPMI-8226): 32.3 µM (inactive) | GI50 (IGROV-1): > 100 µM (inactive) | GI50 (A498): 74.5 µM (inactive) | GI50 (SK-MEL-5): 80.5 µM (inactive) | GI50 (EKVX): 83 µM (inactive) | GI50 (COLO 205): 89.1 µM (inactive) | GI50 (U-251): 50.9 µM (inactive) | GI50 (OVCAR-8): > 100 µM (inactive) | GI50 (M14): > 100 µM (inactive) | GI50 (ACHN): > 100 µM (inactive) | GI50 (SF-268): > 100 µM (inactive) | GI50 (MCF7): 60.4 µM (inactive) | GI50 (HL-60): > 10 µM (inactive) | GI50 (HCT-116): 35.7 µM (inactive) | GI50 (SF-539): > 100 µM (inactive) | GI50 (CCRF-CEM): 45.4 µM (inactive) | GI50 (HOP-92): 18 µM (inactive) | GI50 (SK-MEL-28): > 100 µM (inactive) | GI50 (NCI-H460): 87.9 µM (inactive)
